# Assay results published in patent US9175283B2, “Use polysaccharides for promotion of enzymatic activity” (Genzyme Corporation, priority 2006, dated 2015).
# Test system: sialidase, β-galactosidase, and β-hexosaminidase
# Test: Promotion of Target Enzyme activity: oligosaccharide modification of column-bound GCR substrate, FACE assay
# Assay type: biochemical
# Conditions: pH 5.7; for % Modification (FACE Assay): additive at 10%, sialidase 210, β-galactosidase 33, β-hexosaminidase 2500 U/L sv, approx. 24 hours, room temperature; for Promotion of enzymatic activity of the Target Enzymes versus no additive (in words): additive concentrations of Table 9
# Source text: The FACE assay is a preferred method of monitoring the enzymatic activity of the oligosaccharide/polysaccharide enzymes (such as the Target Enzymes in certain Examples herein) by determining the extent of modification of a substrate (including, but not limited to, a protein, glycoprotein or oligosaccharide) of a Target Enzyme(s). Using a FACE assay, a higher FACE number is indicative of a greater degree of modification and a greater degree of Target Enzyme(s) activity. The FACE assays are known in the art.
# In the Examples herein, when the Target Enzymes were sialidase, β-galactosidase, and β-hexosaminidase, a FACE assay was used to determine the percentage of modified oligosaccharide species in the GCR substrate. Specifically, GCR was treated with N-glycanase (approximately 8 U of N-glycanase per 40 μg GCR) to release intact N-linked oligosaccharide chains. The released oligosaccharides were then labeled with the fluorophore: ANTS (8-aminonapthalene-1,3,6-trisulfonic acid and separated on oligosaccharide profiling gel (Glyko®/Prozyme®, San Leandro, Calif.) as per the manufacturers instructions. A dextran reference ladder standard (Glyko®)/Prozyme®, San Leandro, Calif.) was also run on the gel along with reference oligosaccharides, GlcNAc2(+Fuc)Man3 and GlcNAc2(-Fuc)Man3, Glyko®/Prozyme®, San Leandro, Calif.). Bands on the gel were then quantified by scanning the gel for fluorescence using a SE2000 imager system with fluorescence imaging software (Glyko®/Prozyme®, San Leandro, Calif.).
# The ratio (%) of the fluorescent intensity of the bands representing two core structures, GlcNAc2(Fuc)Man3 and GlcNAc2Man3 (core structures), to the total intensity of bands with mobility ≦GlcNac2Man3 in a given lane provided the percentage of modified GCR. Since GCR acts as a substrate for the three Target Enzymes, sialidase, β-galactosidase, and β-hexosaminidase, the FACE results correlate to the activity of the Target Enzymes against GCR. For GCR, the FACE values can range from about 0 to about 100%, about 3% to about 90% and about 5% to about 85%.
# HES was prepared as a 20% (w/v) stock solution by dissolving solid HES into buffer of the appropriate pH. For this Example, 100 mM sodium citrate, 5 mM calcium chloride, pH 5.7 buffer was used. The 20% […] stock solution was used to make a final concentration of 5% w/L sv HES in the Target Enzyme cocktails. […]
# Target Enzyme cocktails containing three Target Enzymes were made by combining sialidase (210 U/L sv), β-galactosidase (33 U/L sv), β-hexosaminidase (2500 U/L sv), and either Hmxl (14 mL/L sv) or HES (5% w/L sv). […] The enzymatic activity of GCR is measured using standard assays (see, e.g., U.S. Pat. No. 6,451,600). […]
Structure (SMILES),% Modification (FACE Assay) [%],Promotion of enzymatic activity of the Target Enzymes versus no additive (in words)
"CC(O)CO (stereo not shown) [Propylene glycol, propylene glycol]",51.1,did not show Target Enzyme promotion
"OCC(O)CO [Glycerol, glycerol]",34.2,showed a diminution of Target Enzyme promotion
